Assay results reported in ChEMBL document CHEMBL2346616, “Design and synthesis of novel pyrimido[4,5-b]azepine derivatives as HER2/EGFR dual inhibitors” (Bioorg Med Chem, 2013).
The source made the active and inactive calls. The rule behind the calls is not given here.

Experiments:
[1] = target: Protein kinase C theta type (Homo sapiens, UniProt Q04759); test: Inhibition of N-terminal FLAG-tagged PKCtheta (unknown origin) expressed in baculovirus expression system incubated for 5 mins prior to [gamma-33P]ATP addition measured after 60 mins by scintillation counting analysis
[2] = target: Tyrosine-protein kinase CSK (Homo sapiens, UniProt P41240); test: Inhibition of CSK (unknown origin) incubated for 5 mins prior to ATP addition measured after 10 mins by Alphascreen assay
[3] = target: Vascular endothelial growth factor receptor 2 (Homo sapiens, UniProt P35968); test: Inhibition of N-terminal FLAG-tagged VEGFR2 cytoplasmic domain (unknown origin) incubated for 5 mins prior to ATP addition measured after 10 mins by Alphascreen assay
[4] = target: Dual specificity mitogen-activated protein kinase kinase 1 (Homo sapiens, UniProt Q02750); test: Inhibition of N-terminal GST-fused MEK1 (unknown origin) incubated for 5 mins prior to [gamma-33P]ATP addition measured after 20 mins by scintillation counting analysis
[5] = target: Serine/threonine-protein kinase PLK1 (Homo sapiens, UniProt P53350); test: Inhibition of N-terminal FLAG-tagged PLK (unknown origin) expressed in baculovirus expression system incubated for 5 mins prior to [gamma-33P]ATP addition measured after 40 mins by scintillation counting analysis
[6] = target: T1, Tyrosine-protein kinase Lyn (Homo sapiens, UniProt P07948); test: Inhibition of LYNA (unknown origin) incubated for 5 mins prior to ATP addition measured after 10 mins by Alphascreen assay
[7] = target: Mitogen-activated protein kinase 14 (Homo sapiens, UniProt Q16539); test: Inhibition of N-terminal FLAG-tagged p38alpha (unknown origin) expressed in baculovirus expression system incubated for 5 mins prior to [gamma-33P]ATP addition measured after 60 mins by scintillation counting analysis
[8] = target: Mitogen-activated protein kinase 8 (Homo sapiens, UniProt P45983); test: Inhibition of N-terminal FLAG-tagged JNK1 (unknown origin) expressed in baculovirus expression system incubated for 5 mins prior to [gamma-33P]ATP addition measured after 60 mins by scintillation counting analysis
[9] = target: Inhibitor of nuclear factor kappa-B kinase subunit beta (Homo sapiens, UniProt O14920); test: Inhibition of C-terminal FLAG-tagged IKKbeta (unknown origin) expressed in baculovirus expression system incubated for 5 mins prior to [gamma-33P]ATP addition measured after 5 mins by scintillation counting analysis
[10] = target: Mast/stem cell growth factor receptor Kit (Homo sapiens, UniProt P10721); test: Inhibition of c-kit (unknown origin) incubated for 5 mins prior to ATP addition measured after 20 mins by Alphascreen assay
[11] = target: T2, Receptor tyrosine-protein kinase erbB-2 (Homo sapiens, UniProt P04626); test: Pseudo-irreversible inhibition of human N-terminal DYKDDDD-tagged HER2 cytoplasmic domain (676 to 1255) expressed in baculovirus expression system at 10 times IC50 preincubated for 15 mins followed by 100 fold dilution measured after 16 hrs by Alphascreen assay
[12] = target: Vascular endothelial growth factor receptor 1 (Homo sapiens, UniProt P17948); test: Inhibition of VEGFR1 (unknown origin) incubated for 5 mins prior to ATP addition measured after 5 mins by Alphascreen assay
[13] = target: Angiopoietin-1 receptor (Homo sapiens, UniProt Q02763); test: Inhibition of TIE2 (unknown origin) incubated for 5 mins prior to ATP addition measured after 10 mins by Alphascreen assay
[14] = target: Platelet-derived growth factor receptor beta (Homo sapiens, UniProt P09619); test: Inhibition of PDGFRbeta (unknown origin) incubated for 5 mins prior to ATP addition measured after 60 mins by Alphascreen assay
[15] = target: Dual specificity protein kinase TTK (Homo sapiens, UniProt P33981); test: Inhibition of N-terminal FLAG-tagged TTK (unknown origin) expressed in baculovirus expression system incubated for 5 mins prior to [gamma-33P]ATP addition measured after 10 mins by scintillation counting analysis
[16] = target: Hepatocyte growth factor receptor (Homo sapiens, UniProt P08581); test: Inhibition of c-MET (unknown origin) incubated for 5 mins prior to ATP addition measured after 10 mins by Alphascreen assay
[17] = target: Fibroblast growth factor receptor 1 (Homo sapiens, UniProt P11362); test: Inhibition of FGFR1 (unknown origin) incubated for 5 mins prior to ATP addition measured after 10 mins by Alphascreen assay
[18] = target: Insulin-like growth factor 1 receptor (Homo sapiens, UniProt P08069); test: Inhibition of IGF1R (unknown origin) incubated for 5 mins prior to ATP addition measured after 20 mins by Alphascreen assay
[19] = target: Mitogen-activated protein kinase kinase kinase 1 (Homo sapiens, UniProt Q13233); test: Inhibition of C-terminal FLAG-tagged MEKK (unknown origin) expressed in baculovirus expression system incubated for 5 mins prior to [gamma-33P]ATP addition measured after 60 mins by scintillation counting analysis
[20] = target: Mitogen-activated protein kinase kinase kinase 5 (Homo sapiens, UniProt Q99683); test: Inhibition of N-terminal FLAG-tagged ASK1 (unknown origin) expressed in baculovirus expression system incubated for 5 mins prior to [gamma-33P]ATP addition measured after 60 mins by scintillation counting analysis
[21] = test system: BT-474; test: Growth inhibition of human BT474 cells overexpressing HER2 after 5 days; format: functional; details: BT-474, 120 h
[22] = target: Receptor tyrosine-protein kinase erbB-4 (Homo sapiens, UniProt Q15303); test: Inhibition of HER4 cytoplasmic domain (unknown origin) expressed in baculovirus expression system incubated for 5 mins prior to [gamma-32P]ATP addition measured after 10 mins by scintillation counting analysis
[23] = target: Cytoplasmic tyrosine-protein kinase BMX (Homo sapiens, UniProt P51813); test: Inhibition of N-terminal FLAG-tagged full length BMX (unknown origin) expressed in baculovirus expression system incubated for 5 mins prior to ATP addition measured after 10 mins by Alphascreen assay
[24] = target: Mitogen-activated protein kinase 3 (Homo sapiens, UniProt P27361); test: Inhibition of N-terminal FLAG-tagged ERK1 (unknown origin) expressed in baculovirus expression system incubated for 5 mins prior to [gamma-33P]ATP addition measured after 60 mins by scintillation counting analysis
[25] = target: Tyrosine-protein kinase ZAP-70 (Homo sapiens, UniProt P43403); test: Inhibition of ZAP70 (unknown origin) incubated for 5 mins prior to ATP addition measured after 10 mins by Alphascreen assay
[26] = target: T1, Tyrosine-protein kinase Lyn; test: Inhibition of LYNB (unknown origin) incubated for 5 mins prior to ATP addition measured after 10 mins by Alphascreen assay
[27] = target: T2, Receptor tyrosine-protein kinase erbB-2; test: Inhibition of human N-terminal DYKDDDD-tagged HER2 cytoplasmic domain (676 to 1255) expressed in baculovirus expression system incubated for 5 mins prior to [gamma-32P]ATP addition measured after 10 mins by scintillation counting analysis
[28] = target: Glycogen synthase kinase-3 beta (Homo sapiens, UniProt P49841); test: Inhibition of N-terminal FLAG-tagged GSK3beta (unknown origin) expressed in baculovirus expression system incubated for 5 mins prior to [gamma-33P]ATP addition measured after 30 mins by scintillation counting analysis
[29] = target: Fibroblast growth factor receptor 3 (Homo sapiens, UniProt P22607); test: Inhibition of FGFR3 (unknown origin) incubated for 5 mins prior to ATP addition measured after 10 mins by Alphascreen assay
[30] = target: Serine/threonine-protein kinase B-raf (Homo sapiens, UniProt P15056); test: Inhibition of wild type N-terminal FLAG-tagged B-raf (unknown origin) expressed in baculovirus expression system incubated for 5 mins prior to [gamma-33P]ATP addition measured after 20 mins by scintillation counting analysis
[31] = target: Insulin receptor (Homo sapiens, UniProt P06213); test: Inhibition of InsR (unknown origin) incubated for 5 mins prior to ATP addition measured after 60 mins by Alphascreen assay
[32] = Inhibition of PKA (unknown origin) expressed in Escherichia coli expression system incubated for 5 mins prior to [gamma-33P]ATP addition measured after 10 mins by scintillation counting analysis; parameters: species or system Homo sapiens
[33] = target: Dual specificity mitogen-activated protein kinase kinase 5 (Homo sapiens, UniProt Q13163); test: Inhibition of N-terminal FLAG-tagged MEK5 (unknown origin) expressed in baculovirus expression system incubated for 5 mins prior to [gamma-33P]ATP addition measured after 30 mins by scintillation counting analysis
[34] = target: Tyrosine-protein kinase Lck (Homo sapiens, UniProt P06239); test: Inhibition of LCK (unknown origin) incubated for 5 mins prior to ATP addition measured after 30 mins by Alphascreen assay
[35] = target: Aurora kinase B (Homo sapiens, UniProt Q96GD4); test: Inhibition of N-terminal His6x-tagged aurora-B (unknown origin) expressed in baculovirus expression system incubated for 5 mins prior to [gamma-33P]ATP addition measured after 60 mins by scintillation counting analysis
[36] = target: Platelet-derived growth factor receptor alpha (Homo sapiens, UniProt P16234); test: Inhibition of PDGFRalpha (unknown origin) incubated for 5 mins prior to ATP addition measured after 30 mins by Alphascreen assay
[37] = target: Epidermal growth factor receptor (Homo sapiens, UniProt P00533); test: Inhibition of human N-terminal DYKDDDD-tagged EGFR cytoplasmic domain (669 to 1210) expressed in baculovirus expression system incubated for 5 mins prior to [gamma-32P]ATP addition measured after 10 mins by scintillation counting analysis
Chain of Epidermal growth factor receptor (P00533 whole entry, the tested form may be a part): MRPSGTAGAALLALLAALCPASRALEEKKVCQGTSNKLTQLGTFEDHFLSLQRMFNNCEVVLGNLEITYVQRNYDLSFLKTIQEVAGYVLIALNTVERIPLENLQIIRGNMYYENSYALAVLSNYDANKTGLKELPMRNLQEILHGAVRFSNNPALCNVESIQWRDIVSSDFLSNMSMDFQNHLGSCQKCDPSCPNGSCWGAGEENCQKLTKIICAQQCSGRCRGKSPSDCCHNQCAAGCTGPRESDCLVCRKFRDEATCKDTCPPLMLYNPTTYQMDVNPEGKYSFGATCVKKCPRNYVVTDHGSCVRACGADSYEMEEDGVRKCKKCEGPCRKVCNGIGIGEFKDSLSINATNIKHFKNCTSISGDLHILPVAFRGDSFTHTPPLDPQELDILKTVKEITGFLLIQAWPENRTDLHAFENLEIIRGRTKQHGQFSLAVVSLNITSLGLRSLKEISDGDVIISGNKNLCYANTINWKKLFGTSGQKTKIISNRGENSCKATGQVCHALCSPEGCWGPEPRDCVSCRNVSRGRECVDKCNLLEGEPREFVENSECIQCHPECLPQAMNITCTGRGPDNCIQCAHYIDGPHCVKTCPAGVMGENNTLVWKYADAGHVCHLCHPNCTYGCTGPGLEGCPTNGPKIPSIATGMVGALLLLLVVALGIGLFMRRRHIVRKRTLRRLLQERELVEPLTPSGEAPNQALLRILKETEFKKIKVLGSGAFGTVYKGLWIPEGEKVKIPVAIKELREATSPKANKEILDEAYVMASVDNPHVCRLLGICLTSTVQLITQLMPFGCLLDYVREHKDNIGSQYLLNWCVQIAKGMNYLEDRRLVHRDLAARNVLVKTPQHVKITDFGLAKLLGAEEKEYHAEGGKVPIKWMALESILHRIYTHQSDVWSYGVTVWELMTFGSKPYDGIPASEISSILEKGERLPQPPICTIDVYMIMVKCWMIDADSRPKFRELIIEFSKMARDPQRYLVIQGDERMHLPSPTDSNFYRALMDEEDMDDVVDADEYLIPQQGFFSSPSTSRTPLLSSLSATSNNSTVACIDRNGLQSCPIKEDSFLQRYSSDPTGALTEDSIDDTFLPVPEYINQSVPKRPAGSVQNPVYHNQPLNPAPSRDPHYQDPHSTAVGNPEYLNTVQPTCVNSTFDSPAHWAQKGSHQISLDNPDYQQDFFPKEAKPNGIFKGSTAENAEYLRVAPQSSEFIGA

T2 sequence (P04626 whole entry, the tested form may be a part): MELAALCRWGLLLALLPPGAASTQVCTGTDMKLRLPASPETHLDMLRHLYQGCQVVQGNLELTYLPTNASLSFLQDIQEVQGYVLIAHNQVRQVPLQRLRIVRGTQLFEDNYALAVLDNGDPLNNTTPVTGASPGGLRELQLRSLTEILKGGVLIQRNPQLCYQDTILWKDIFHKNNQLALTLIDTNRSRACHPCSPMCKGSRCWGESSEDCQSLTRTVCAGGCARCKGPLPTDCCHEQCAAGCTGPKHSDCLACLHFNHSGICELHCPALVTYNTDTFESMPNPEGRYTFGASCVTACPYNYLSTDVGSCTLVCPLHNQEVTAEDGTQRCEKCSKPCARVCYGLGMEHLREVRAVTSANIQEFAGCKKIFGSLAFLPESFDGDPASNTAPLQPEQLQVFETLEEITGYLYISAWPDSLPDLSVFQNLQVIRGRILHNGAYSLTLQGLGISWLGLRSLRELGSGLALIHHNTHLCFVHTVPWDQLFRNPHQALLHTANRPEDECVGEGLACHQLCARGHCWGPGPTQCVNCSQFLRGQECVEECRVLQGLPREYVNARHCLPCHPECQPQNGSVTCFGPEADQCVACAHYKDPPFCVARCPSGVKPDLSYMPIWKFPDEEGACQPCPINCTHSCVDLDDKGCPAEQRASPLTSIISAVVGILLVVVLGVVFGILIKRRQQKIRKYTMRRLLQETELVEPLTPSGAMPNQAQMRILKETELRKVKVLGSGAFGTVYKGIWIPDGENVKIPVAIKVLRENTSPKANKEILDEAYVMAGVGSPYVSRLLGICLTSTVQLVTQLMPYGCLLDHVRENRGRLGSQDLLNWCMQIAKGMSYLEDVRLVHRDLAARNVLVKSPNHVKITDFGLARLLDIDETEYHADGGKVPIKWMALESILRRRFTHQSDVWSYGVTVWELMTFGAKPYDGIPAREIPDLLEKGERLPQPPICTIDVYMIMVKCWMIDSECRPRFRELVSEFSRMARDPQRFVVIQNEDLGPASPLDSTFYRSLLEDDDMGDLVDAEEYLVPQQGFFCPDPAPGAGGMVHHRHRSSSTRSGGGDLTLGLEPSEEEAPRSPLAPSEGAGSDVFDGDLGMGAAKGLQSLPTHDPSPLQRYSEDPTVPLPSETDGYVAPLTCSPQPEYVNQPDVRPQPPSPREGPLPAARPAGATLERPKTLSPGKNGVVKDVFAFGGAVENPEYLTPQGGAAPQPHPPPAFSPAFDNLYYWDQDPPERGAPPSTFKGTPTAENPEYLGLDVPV
T1 sequence (P07948 whole entry): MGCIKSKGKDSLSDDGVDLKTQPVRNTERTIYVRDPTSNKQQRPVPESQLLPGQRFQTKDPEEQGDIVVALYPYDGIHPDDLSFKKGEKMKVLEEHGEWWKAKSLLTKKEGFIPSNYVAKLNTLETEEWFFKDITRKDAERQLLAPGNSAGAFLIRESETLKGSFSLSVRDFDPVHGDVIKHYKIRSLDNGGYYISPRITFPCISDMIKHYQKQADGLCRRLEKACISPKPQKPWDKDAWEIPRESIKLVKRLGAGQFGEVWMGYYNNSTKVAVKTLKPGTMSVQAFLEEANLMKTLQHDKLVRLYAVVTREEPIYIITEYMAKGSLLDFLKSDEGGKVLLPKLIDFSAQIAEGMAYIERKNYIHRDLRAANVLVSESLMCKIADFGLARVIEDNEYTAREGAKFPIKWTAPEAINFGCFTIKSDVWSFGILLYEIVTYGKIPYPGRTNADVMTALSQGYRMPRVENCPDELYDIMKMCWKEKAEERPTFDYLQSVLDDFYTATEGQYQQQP
Chain of Dual specificity mitogen-activated protein kinase kinase 1 (Q02750 whole entry, the tested form may be a part): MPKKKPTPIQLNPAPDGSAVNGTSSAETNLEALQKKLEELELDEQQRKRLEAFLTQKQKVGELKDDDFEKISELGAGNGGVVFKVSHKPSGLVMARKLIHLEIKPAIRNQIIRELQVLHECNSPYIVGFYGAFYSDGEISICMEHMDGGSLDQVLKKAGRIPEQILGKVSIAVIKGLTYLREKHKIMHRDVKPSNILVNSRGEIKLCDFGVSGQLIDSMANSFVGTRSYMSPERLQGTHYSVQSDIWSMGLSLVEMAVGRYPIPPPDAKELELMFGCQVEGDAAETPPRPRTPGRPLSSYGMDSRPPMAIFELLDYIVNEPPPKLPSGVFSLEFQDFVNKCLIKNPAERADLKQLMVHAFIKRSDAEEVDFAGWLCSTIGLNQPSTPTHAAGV
Chain of Dual specificity mitogen-activated protein kinase kinase 5 (Q13163 whole entry): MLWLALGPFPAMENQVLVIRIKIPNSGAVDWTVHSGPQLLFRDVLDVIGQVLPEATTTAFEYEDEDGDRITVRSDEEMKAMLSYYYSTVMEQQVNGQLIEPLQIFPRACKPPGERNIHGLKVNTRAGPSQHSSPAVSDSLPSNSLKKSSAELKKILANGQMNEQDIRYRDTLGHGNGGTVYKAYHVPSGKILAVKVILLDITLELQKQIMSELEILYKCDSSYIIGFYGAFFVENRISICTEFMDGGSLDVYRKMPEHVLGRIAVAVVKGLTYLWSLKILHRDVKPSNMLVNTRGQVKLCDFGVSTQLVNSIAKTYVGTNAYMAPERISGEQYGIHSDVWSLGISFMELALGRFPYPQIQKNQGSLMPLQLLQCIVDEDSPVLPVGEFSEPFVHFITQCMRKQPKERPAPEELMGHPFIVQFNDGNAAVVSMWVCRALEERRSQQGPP
Chain of Cytoplasmic tyrosine-protein kinase BMX (P51813 whole entry): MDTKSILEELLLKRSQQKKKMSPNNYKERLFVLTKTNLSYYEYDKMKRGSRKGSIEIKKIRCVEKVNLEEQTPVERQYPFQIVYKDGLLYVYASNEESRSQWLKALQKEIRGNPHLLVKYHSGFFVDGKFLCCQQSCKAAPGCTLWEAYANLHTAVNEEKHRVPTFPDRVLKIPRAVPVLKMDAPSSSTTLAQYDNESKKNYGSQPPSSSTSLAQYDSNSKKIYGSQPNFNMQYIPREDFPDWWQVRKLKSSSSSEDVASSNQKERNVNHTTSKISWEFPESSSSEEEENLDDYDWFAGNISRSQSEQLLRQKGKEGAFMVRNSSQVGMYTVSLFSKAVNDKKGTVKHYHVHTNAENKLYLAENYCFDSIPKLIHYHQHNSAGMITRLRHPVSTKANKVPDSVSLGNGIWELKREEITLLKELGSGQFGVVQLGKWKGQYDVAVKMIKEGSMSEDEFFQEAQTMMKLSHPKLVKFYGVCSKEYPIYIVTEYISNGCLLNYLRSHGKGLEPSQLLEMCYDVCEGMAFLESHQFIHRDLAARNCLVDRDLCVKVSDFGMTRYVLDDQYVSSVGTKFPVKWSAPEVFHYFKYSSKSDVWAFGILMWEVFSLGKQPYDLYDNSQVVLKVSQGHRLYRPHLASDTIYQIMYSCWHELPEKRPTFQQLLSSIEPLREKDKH
Chain of Glycogen synthase kinase-3 beta (P49841 whole entry): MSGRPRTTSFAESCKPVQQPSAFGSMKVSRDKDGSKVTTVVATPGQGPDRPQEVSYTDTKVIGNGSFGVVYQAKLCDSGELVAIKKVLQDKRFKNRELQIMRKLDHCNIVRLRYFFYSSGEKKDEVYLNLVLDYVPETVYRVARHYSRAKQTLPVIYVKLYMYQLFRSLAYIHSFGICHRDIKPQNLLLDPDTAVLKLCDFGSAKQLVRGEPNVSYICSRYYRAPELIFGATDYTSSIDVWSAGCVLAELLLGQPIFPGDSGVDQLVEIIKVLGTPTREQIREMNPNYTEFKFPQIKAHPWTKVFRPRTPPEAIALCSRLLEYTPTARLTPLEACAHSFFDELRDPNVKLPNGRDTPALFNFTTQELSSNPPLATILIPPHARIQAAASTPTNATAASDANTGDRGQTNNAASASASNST

In the case of `O=C(NCCO)C1=Cc2c(ncnc2Nc2ccc(Oc3cccc4sccc34)c(Cl)c2)NCC1`, the IC50 [1] is reported as greater than 10000 nM, the IC50 [2] is reported as greater than 10000 nM and the IC50 [3] is reported as greater than 10000 nM. The IC50 [4] was greater than 10000 nM, the IC50 [5] was greater than 10000 nM and the IC50 [6] was 9800 nM. The IC50 [7] was 1700 nM, the IC50 [8] was greater than 10000 nM and the IC50 [9] was greater than 10000 nM. The IC50 [10] was greater than 10000 nM, the inhibition [11] was “Active” and the IC50 [12] was greater than 10000 nM. It also gave an IC50 [13] greater than 10000 nM, an IC50 [14] greater than 10000 nM and an IC50 [15] greater than 10000 nM. It also gave an IC50 [16] of 5600 nM, an IC50 [17] greater than 10000 nM and an IC50 [18] greater than 10000 nM. It also gave an IC50 [19] greater than 10000 nM, an IC50 [20] greater than 10000 nM and a GI50 [21] of 18 nM. It also gave an IC50 [22] of 240 nM, an IC50 [23] greater than 10000 nM and an IC50 [24] greater than 10000 nM. For the same compound, the IC50 [25] was greater than 10000 nM, the IC50 [26] was 3000 nM and the IC50 [27] was 24 nM. It also gave an IC50 [28] greater than 10000 nM, an IC50 [29] greater than 10000 nM and an IC50 [30] of 230 nM. For the same compound, the IC50 [31] was greater than 10000 nM, the IC50 [32] was greater than 10000 nM and the IC50 [33] was 870 nM. It also gave an IC50 [34] of 3200 nM, an IC50 [35] greater than 10000 nM and an IC50 [36] greater than 10000 nM.

`O=C(NCCO)C1=Cc2c(ncnc2Nc2ccc(Oc3cccc(C(F)(F)F)c3)c(Cl)c2)NCC1` showed an IC50 [37] of 38 nM, a GI50 [21] of 630 nM and an IC50 [27] of 29 nM.

With `CS(=O)(=O)CCNC(=O)C1=Cc2c(ncnc2Nc2ccc(Oc3cccc(C(F)(F)F)c3)c(Cl)c2)NCC1` the IC50 [37] was 75 nM, the GI50 [21] was 620 nM and the IC50 [27] was 65 nM.

For `CS(=O)(=O)CCNC(=O)C1=Cc2c(ncnc2Nc2ccc(Oc3cccc4sccc34)c(Cl)c2)NCC1`, the IC50 [37] was 47 nM, the GI50 [21] was 25 nM and the IC50 [27] was 30 nM.

`COC(=O)C1=Cc2c(ncnc2Nc2ccc(Oc3cccc4sccc34)c(Cl)c2)NCC1` showed an IC50 [37] of 44 nM, a GI50 [21] of 190 nM and an IC50 [27] of 18 nM.

Work on `CC(C)(O)CC(=O)NCCn1ccc2ncnc(Nc3ccc(Oc4cccc(C(F)(F)F)c4)c(Cl)c3)c21` [TAK-285] yielded a GI50 [21] of 17 nM.

`COC(=O)C1=Cc2c(ncnc2Nc2ccc(Oc3cccc(C(F)(F)F)c3)c(Cl)c2)NCC1` gave an IC50 [37] of 110 nM, a GI50 [21] of 2000 nM and an IC50 [27] of 100 nM.
